Results published in patent publication US4260605A, “Novel alkylated pregnanes, processes for their preparation and pharmaceutical compositions containing same” (Akzo N.V., priority 1979, dated 1981).

Test system: dorsal shaved skin
Test: Rat seven-day intracutaneous skin thinning test (skin thinning and systemic effects)
Assay type: in vivo, rat (male, strain CFHB)
Conditions: for Final body weight / Combined adrenal weight / Thymus weight / Spleen weight / Treated skin weight: mean; for Final body weight: 8 mg intracutaneous (16×0.5 mg), autopsy seven days later, initial body weight 200±3 g, control 249; for Combined adrenal weight / Thymus weight / Spleen weight / Treated skin weight: 8 mg intracutaneous, seven days; for Combined adrenal weight: control 41.5; for Thymus weight: control 612; for Spleen weight: control 788; for Treated skin weight: 4×4 cm area of treated skin, control 1.630; for systemic effects: conclusion in words
Procedure: Male rats strain CFHB, initial body weight 200±3 g, were used in the experiment and divided in seven groups each containing 10 animals, six groups being used for testing the compounds a-f and the seventh group serving as controls.
Each anaesthetised animal in each group received 8 mg of the respective compound injected as 16×0.5 mg suspended in 0.05 ml of suspension fluid into a 4×4 cm area of dorsal shaved skin. […]
At autopsy seven days later the spleen, adrenals, thymus and body weight were recorded in addition to the 4×4 cm area of treated skin. Table B summarises the means of the results.

| Structure (SMILES) | Final body weight [g] | Combined adrenal weight [mg] | Thymus weight [mg] | Spleen weight [mg] | Treated skin weight [g] | systemic effects |
| --- | --- | --- | --- | --- | --- | --- |
| CCCC(=O)O[C@]1(C(=O)CC)CC[C@H]2[C@@H]3CCC4=CC(=O)CC[C@]4(C)[C@H]3[C@@H](O)C[C@@]21C [b, 11β,17dihydroxy-21-methyl-Δ^4pregnene-3,20-dione 17n-butyrate] | 249 | 36.3 | 533 | 727 | 1.660 |  |
| CCCCC(=O)O[C@]1(C(=O)CO)[C@@H](C)C[C@H]2[C@@H]3CCC4=CC(=O)C=C[C@]4(C)[C@@]3(F)[C@@H](O)C[C@@]21C [f, betamethasone 17valerate] | 229 | 21.5 | 96 | 445 | 1.445 | have systemic effects |
| CCCC(=O)O[C@]1(C(=O)CO)CC[C@H]2[C@@H]3CCC4=CC(=O)CC[C@]4(C)[C@H]3[C@@H](O)C[C@@]21C [g, hydrocortisone 17n-butyrate] | 227 | 34.7 | 96 | 503 | 1.410 | have systemic effects |
| CC1(C)O[C@@H]2C[C@H]3[C@@H]4CCC5=CC(=O)C=C[C@]5(C)[C@@]4(F)[C@@H](O)C[C@]3(C)[C@]2(C(=O)CO)O1 [h, triamcinolone acetonide] | 142 | 17.4 | 65 | 150 | 1.107 | have systemic effects |
